Active and inactive are the calls of the source. The calls are words filed in the database; no cut-off is given here.
Tests used:
Mus musculus [1] = assay: Antiobesity activity in Sabra mouse assessed as change in body weight at 1 mg/kg, ip administered on day 8, 12 and 43 measured on day 33 relative to control; format: functional; settings: route intraperitoneal
Mus musculus [2] = assay: Antiobesity activity in high fat diet fed C57BL/6 mouse assessed as reduction in body weight at 1 mg/kg, ip administered on day 3, 6, 8, 9, 10 measured on day 8 relative to control; format: functional; design: scale not given: the % may be the effect or the level left; settings: route intraperitoneal
Mus musculus [3] = assay: Increase in ALT levels in Sabra mouse at 1 mg/kg, ip administered on day 8, 12 and 43 measured on day 74; format: ADME, organism-based; design: dose 1 mg/kg, route intraperitoneal; settings: in vivo
Hypothalamus [4] = assay: Effect on FAAH gene expression in Sabra mouse hypothalamus assessed as change in mRNA level at 1 mg/kg, ip administered on day 8, 9, 10, 11, 14, 18, 24 and 32 by RT-PCR analysis relative to GAPDH; format: functional; settings: route intraperitoneal
Mus musculus [5] = assay: Antiobesity activity in Sabra mouse assessed as change in body weight at 1 mg/kg, ip administered on day 8, 12 and 43 measured on day 54 relative to control; format: functional; settings: route intraperitoneal
[6] = target: Cannabinoid receptor 1 (Homo sapiens) (UniProt P21554); assay: Displacement of [3H]SR141716A from human CB1 receptor expressed in rat Chem-1 cell membrane at 10 uM relative to control; format: cell membranes
Sequence of Cannabinoid receptor 1 (Homo sapiens) (P21554 whole entry): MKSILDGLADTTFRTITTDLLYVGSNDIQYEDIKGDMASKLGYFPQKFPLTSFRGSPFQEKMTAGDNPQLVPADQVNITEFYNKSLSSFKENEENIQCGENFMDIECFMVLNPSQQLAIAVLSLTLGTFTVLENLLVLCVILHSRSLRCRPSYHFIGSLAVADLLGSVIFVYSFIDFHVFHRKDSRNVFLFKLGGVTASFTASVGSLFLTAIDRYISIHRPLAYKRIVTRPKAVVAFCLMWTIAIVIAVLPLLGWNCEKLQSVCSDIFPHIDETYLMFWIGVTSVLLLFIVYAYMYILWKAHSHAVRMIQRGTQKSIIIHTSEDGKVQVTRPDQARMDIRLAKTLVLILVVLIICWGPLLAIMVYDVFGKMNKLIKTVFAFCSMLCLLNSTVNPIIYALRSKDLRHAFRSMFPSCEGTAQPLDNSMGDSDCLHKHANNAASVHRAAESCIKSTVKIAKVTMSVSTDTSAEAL

Mus musculus [7] = assay: Antiobesity activity in Sabra mouse assessed as change in body weight at 1 mg/kg, ip administered on day 8, 9, 10, 11, 14, 18, 24 and 32 measured on day 25 relative to control; format: functional; settings: route intraperitoneal
Mus musculus [8] = assay: Antiobesity activity in leptin-deficient ob/ob mouse assessed as reduction in body weight at 10 mg/kg via oral gavage; format: functional, organism-based; design: dose 10 mg/kg
Mus musculus [9] = assay: Enhancement of motor activity C57BL/6 mouse assessed as reduction food consumption at 1 mg/kg, ip administered on day 3, 6, 8, 9, 10 measured on day 10; format: functional, organism-based; design: dose 1 mg/kg
Mus musculus [10] = assay: Antiobesity activity in C57BL/6 mouse assessed as weight loss at 5 mg/kg, ip administered on day 1, 4, 5, 7, 17, 15, 19 measured on day 11 relative to control; format: functional; settings: route intraperitoneal
Mus musculus [11] = assay: Antiobesity activity in high fat diet fed C57BL/6 mouse assessed as reduction in body weight at 1 mg/kg, ip administered on day 3, 6, 8, 9, 10 measured on day 9 relative to control; format: functional; design: scale not given: the % may be the effect or the level left; settings: route intraperitoneal
Mus musculus [12] = assay: Antiobesity activity in Sabra mouse assessed as change in body weight at 1 mg/kg, ip administered on day 8, 9, 10, 11, 14, 18, 24 and 32 measured on day 30 relative to control; format: functional; settings: route intraperitoneal
Hypothalamus [13] = assay: Effect on POMC gene expression in Sabra mouse hypothalamus assessed as increase in mRNA level at 10 mg/kg, ip administered on day 6 to 10 measured on day 16 by RT-PCR analysis relative to control; format: functional; settings: route intraperitoneal
Mus musculus [14] = assay: Antiobesity activity in Sabra mouse assessed as change in body weight at 1 mg/kg, ip administered on day 8, 12 and 43 measured on day 15 relative to control; format: functional; settings: route intraperitoneal
Mus musculus [15] = assay: Antiobesity activity in C57BL/6 mouse assessed as change in glucose level in blood at 5 mg/kg, ip administered on day 1, 4, 5, 7, 17, 15, 19 measured on day 19 relative to control; format: functional; settings: route intraperitoneal
Hypothalamus [16] = assay: Effect on 5HT1A gene expression in Sabra mouse hypothalamus assessed as change in mRNA level at 1 mg/kg, ip administered on day 8, 9, 10, 11, 14, 18, 24 and 32 by RT-PCR analysis relative to GAPDH; format: functional; settings: route intraperitoneal
Mus musculus [17] = assay: Antiobesity activity in C57BL/6 mouse assessed as change in glucose level in blood at 5 mg/kg, ip administered on day 1, 4, 5, 7, 17, 15, 19 measured on day 11 relative to control; format: functional; settings: route intraperitoneal
Mus musculus [18] = assay: Increase in motor activity Sabra mouse at 1 mg/kg, ip administered on day 8, 9, 10, 11, 14, 18, 24 and 32 measured on day 14 by open field test; format: functional, organism-based; design: dose 1 mg/kg
Mus musculus [19] = assay: Antiobesity activity in Sabra mouse assessed as reduction in body weight at 1 mg/kg, ip administered on day 0, 10, 11, 12, 24, 29 measured on day 33 relative to control; format: functional; design: scale not given: the % may be the effect or the level left; settings: route intraperitoneal
Mus musculus [20] = assay: Hepatotoxicity in Sabra mouse assessed as coagulative necrosis changes at 1 mg/kg, ip administered on day 8, 9, 10, 11, 14, 18, 24 and 32 by hematoxylin and eosin staining-based histopathological analysis; format: toxicity, organism-based; design: dose 1 mg/kg, route intraperitoneal; settings: in vivo
Mus musculus [21] = assay: Antiobesity activity in Sabra mouse assessed as change in body weight at 1 mg/kg, ip administered on day 8, 12 and 43 measured on day 5 relative to control; format: functional; settings: route intraperitoneal
Mus musculus [22] = assay: Antiobesity activity in Sabra mouse assessed as reduction in body weight at 1 mg/kg, ip administered on day 0, 10, 11, 12, 24, 29 measured on day 26 relative to control; format: functional; design: scale not given: the % may be the effect or the level left; settings: route intraperitoneal
Hypothalamus [23] = assay: Effect on NPY gene expression in Sabra mouse hypothalamus assessed as change in mRNA level at 1 mg/kg, ip administered on day 8, 9, 10, 11, 14, 18, 24 and 32 by RT-PCR analysis relative to GAPDH; format: functional; settings: route intraperitoneal
Mus musculus [24] = assay: Hepatotoxicity in Sabra mouse assessed as ischemic changes at 1 mg/kg, ip administered on day 8, 9, 10, 11, 14, 18, 24 and 32 by hematoxylin and eosin staining-based histopathological analysis; format: toxicity, organism-based; design: dose 1 mg/kg, route intraperitoneal; settings: in vivo
Mus musculus [25] = assay: Toxicity in Sabra mouse assessed as morphological changes in glial cells at 1 mg/kg, ip administered on day 8, 9, 10, 11, 14, 18, 24 and 32 by hematoxylin and eosin staining-based histopathological analysis; format: organism-based; design: dose 1 mg/kg, route intraperitoneal; settings: in vivo
Mus musculus [26] = assay: Antiobesity activity in C57BL/6 mouse assessed as weight loss at 5 mg/kg, ip administered on day 1, 4, 5, 7, 17, 15, 19 measured on day 5 relative to control; format: functional; settings: route intraperitoneal
Mus musculus [27] = assay: Antiobesity activity in Sabra mouse assessed as reduction in body weight at 1 mg/kg, ip administered on day 0, 10, 11, 12, 24, 29 measured on day 19 relative to control; format: functional; design: scale not given: the % may be the effect or the level left; settings: route intraperitoneal
Mus musculus [28] = assay: Enhancement of cognitive function in Sabra mouse at 1 mg/kg, ip administered on day 6 to 10 by eight-arm maze test; format: functional, organism-based; design: dose 1 mg/kg
Mus musculus [29] = assay: Antiobesity activity in C57BL/6 mouse assessed as change in glucose level in blood at 5 mg/kg, ip administered on day 1, 4, 5, 7, 17, 15, 19 measured on day 9 relative to control; format: functional; settings: route intraperitoneal
Mus musculus [30] = assay: Antiobesity activity in Sabra mouse assessed as reduction in body weight at 1 mg/kg, ip administered on day 6 to 10 measured on day 16 relative to control; format: functional; design: scale not given: the % may be the effect or the level left; settings: route intraperitoneal
Hypothalamus [31] = assay: Effect on POMC gene expression in ip dosed Sabra mouse hypothalamus assessed as increase in mRNA level administered on day 6 to 10 measured on day 16 by RT-PCR analysis relative to control; format: functional, organism-based
Mus musculus [32] = assay: Antiobesity activity in C57BL/6 mouse assessed as change in triglyceride level at 5 mg/kg, ip measured on day 36 (reference value: 0.92 mg/dL); format: functional; settings: route intraperitoneal

CCCCCCCC/C=C\CCCCCCCC(=O)N[C@H](CO)C(C)C
Activity (Mus musculus [1]): -5.2% | Activity (Mus musculus [2]): -3.2% | Activity (Mus musculus [3]): Not Active | Activity (Hypothalamus [4]): -33% | Activity (Mus musculus [5]): -8.2% | inhibition [6]: 35% | Activity (Mus musculus [7]): -5% | Activity (Mus musculus [8]): inactive | Activity (Mus musculus [9]): Active | Activity (Mus musculus [10]): -3.2% | Activity (Mus musculus [11]): -3.1% | Activity (Mus musculus [12]): -5.2% | Activity (Hypothalamus [13]): 90% | Activity (Mus musculus [14]): -2.2% | Activity (Mus musculus [15]): -21.6% | Activity (Hypothalamus [16]): -20% | Activity (Mus musculus [17]): -17.3% | Activity (Mus musculus [18]): Active | Activity (Mus musculus [19]): -4% | Activity (Mus musculus [20]): Non-toxic | Activity (Mus musculus [21]): 1.8% | Activity (Mus musculus [22]): -4.05% | Activity (Hypothalamus [23]): -11% | Activity (Mus musculus [24]): Non-toxic | Activity (Mus musculus [25]): Non-toxic | Activity (Mus musculus [26]): -3.2% | Activity (Mus musculus [27]): -1.85% | Activity (Mus musculus [28]): Active | Activity (Mus musculus [29]): -11.8% | Activity (Mus musculus [30]): 4.6% | Activity (Hypothalamus [31]): Dose-dependent effect | Activity (Mus musculus [32]): 1.017 mg/dL

Reference: ChEMBL document CHEMBL2321853, “Novel acylethanolamide derivatives that modulate body weight through enhancement of hypothalamic pro-opiomelanocortin (POMC) and/or decreased neuropeptide Y (NPY)” (J Med Chem, 2013)
